Data taken from patent publication US8853359B2, “Endokinin C/D-derived peptides” (University of Miyazaki, priority 2009, dated 2014).
Entries after “also recorded” stand apart in the source; their conditions may differ. Square brackets hold non-standard residues; d marks the D form. Ends that are not written are not given here.

Tests used:
[1] = system: substance P-induced scratching behavior; experiment: substance P-induced scratching behavior after intrathecal pre-administration of test peptide; type: in vivo, rat; conditions: for scratching behavior induced by substance P / suppressive effects: Example 3, FIG. 3, control 380 scratching; for scratching behavior induced by substance P / suppressive effects / scratching behavior induced by substance P / suppressive effects on scratching as administration interval is prolonged: 10^-3M peptide; for scratching behavior induced by substance P / suppressive effects / scratching behavior induced by substance P: SP 4 hours after peptide; for scratching behavior induced by substance P / suppressive effects on scratching as administration interval is prolonged: Example 2, FIG. 2; for scratching behavior induced by substance P: control about 380 scratching; for suppressive effects on scratching as administration interval is prolonged: interval 8 hours and then 14 hours; for number of scratching events induced by substance P, relative to control group (saline+SP = 100%): 10^-3M (10 nmol/10 μl) peptide intrathecal, 10^-3M SP 30 minutes after peptide; for number of scratching events induced by substance P, relative to control group (saline+SP = 100%) / number of scratching events induced by substance P, relative to control group: FIG. 1
Experimental: In Example 1, 10^−3M (10 nmol/10 μl) EKC/D or D-EKC/D (1), (2) or (3) was administered to intrathecally catheterized rats via catheters. After the predetermined time periods denoted on the horizontal axis in FIG. 1, the numbers of scratching events (scratching behavior) induced by intrathecal administration of 10^−3M (10 nmol/10 μl) substance P (hereafter, referred to as “SP”) were determined. Here, the expression “10^−3M (10 nmol/10 μl) EKC/D or D-EKC/D (1), (2), or (3) was administered” refers to a situation in which 10 μl in total of a solution (that is, 10^−3M solution) containing 10 nmol of EKC/D or D-EKC/D (1), (2), or (3) was all administered. The expression, “ . . . administration of 10^−3M substance P (10 nmol/10 μl)” refers to a situation in which 10 μl in total of a solution (that is, 10^−3M solution) containing 10 nmol of the substance was all administered. The same similarly applies below.
Meanwhile, saline (10 μl) was intrathecally administered to intrathecally catheterized rats via catheters and then, after 30 minutes, 10^−3M SP (10 nmol/10 μl) was intrathecally administered to the rats. The number of the thus induced scratching events was determined to be the number of scratching events in the control group. The control group is denoted with saline-4-SP in FIG. 1.
The vertical axis of the graph in FIG. 1 indicates changes in the numbers of scratching events (represented by relative values) due to administration of 10^−3M EKC/D or D-EKC/D (1), (2), or (3) when the number of scratching events (of untreated rats in a control group) induced by intrathecal administration of 10^−3M substance P was determined to be 100%. Meanwhile, the horizontal axis indicates the intervals between the administration of EKC/D, D-EKC/D (1), (2), or (3) and 10^−3M substance P. […]
The test was conducted with procedures similar to those in Example 1, except for 4 hours of interval between the administration of each test peptide and the administration of substance P. The concentration of each test peptide and that of substance P for administration were determined to be 10^−3M (10 nmol/10 μl), similarly to Example 1. The number of scratching events in the control group was determined with procedures similar to those in Example 1, such that substance P was administered at 30 minutes after administration of saline (10 μl) and then the number was determined.

[2] = system: SP-induced thermal hyperalgesia; experiment: SP-induced thermal hyperalgesia (withdrawal latency) after intrathecal pre-administration of peptide; type: in vivo, rat; conditions: 10^-3M (10 nmol/10 μl) peptide intrathecal, FIG. 7
Text: In this test, the effects of intrathecal pre-administration with D-EKC/D (1), (2), and (3) on the induction of thermal hyperalgesia following intrathecal administration of SP were confirmed using as an index thermal hyperalgesia, which is one type of pain-related behavior. The effects can be evaluated based on withdrawal latency period, which is the time required for withdrawal response to take place after application of noxious thermal stimulation to plantar using infrared rays.
In Example 4, 10^−3M (10 nmol/10 μl) D-EKC/D (1), (2), or (3) was administered to intrathecally catheterized rats via catheters, intrathecal administration of 10^−6M (10 pmol/10 μl) SP was performed at 4 hours and at 8 hours after administration of D-EKC/D, the presence or the absence of hyperalgesia following intrathecal administration of SP was evaluated based on the time (latency period) required for withdrawal response to take place, the latency period following SP administration in rats pretreated with D-EKC/D and the latency period resulting from administration of SP alone were compared, and thus the effects of preadministration of D-EKC/D (1), (2), and (3) were evaluated.

[3] = 10^-3M (10 nmol/10 μl) Spantide I intrathecal, FIG. 6
[4] = 10^-3M peptide intrathecal, SP 1 hour after peptide
[5] = 10^-6M SP 4 hours later, saline about 20 seconds, SP about 13 seconds

DArg-Pro-Lys-Pro-Gln-Gln-DTrp-Phe-DTrp-Leu-Leu-NH2 ([dR]PKPQQ[dW]F[dW]LL-NH2) [Spantide I, reference compound]
duration of suppressive effects on substance P-induced scratching behavior [1, 3]: ≤ 30 min
effect on substance P-induced scratching behavior [1, 3]: suppressed

Phe-Gln-DTrp-Leu-Leu-NH2 (FQXLL; HELM PEPTIDE1{F.Q.[dW].L.L.[am]}$$$$V2.0; N-terminus assumed; SMILES CC(C)C[C@H](NC(=O)[C@H](CC(C)C)NC(=O)[C@@H](Cc1c[nH]c2ccccc12)NC(=O)[C@H](CCC(N)=O)NC(=O)[C@@H](N)Cc1ccccc1)C(N)=O) [D-EKC/D (8)]
scratching behavior induced by substance P / suppressive effects [1]: Almost no suppressive effects; also recorded: almost the same as that of the control group

His-Thr-Phe-Gln-DTrp-Leu-Leu-NH2 (HTFQXLL; HELM PEPTIDE1{H.T.F.Q.[dW].L.L.[am]}$$$$V2.0; N-terminus assumed; SMILES CC(C)C[C@H](NC(=O)[C@H](CC(C)C)NC(=O)[C@@H](Cc1c[nH]c2ccccc12)NC(=O)[C@H](CCC(N)=O)NC(=O)[C@H](Cc1ccccc1)NC(=O)[C@@H](NC(=O)[C@@H](N)Cc1c[nH]cn1)[C@@H](C)O)C(N)=O) [D-EKC/D (6)]
scratching behavior induced by substance P [1]: significant suppressive effects were observed
suppressive effects on scratching as administration interval is prolonged [1]: attenuated
scratching behavior induced by substance P / suppressive effects [1]: attenuated

Ala-Tyr-Gln-Leu-Glu-His-Thr-DTrp-Gln-Gly-Leu-Leu-NH2 (AYQLEHTXQGLL; HELM PEPTIDE1{A.Y.Q.L.E.H.T.[dW].Q.G.L.L.[am]}$$$$V2.0; N-terminus assumed; SMILES CC(C)C[C@H](NC(=O)[C@H](CC(C)C)NC(=O)CNC(=O)[C@H](CCC(N)=O)NC(=O)[C@@H](Cc1c[nH]c2ccccc12)NC(=O)[C@@H](NC(=O)[C@H](Cc1c[nH]cn1)NC(=O)[C@H](CCC(=O)O)NC(=O)[C@H](CC(C)C)NC(=O)[C@H](CCC(N)=O)NC(=O)[C@H](Cc1ccc(O)cc1)NC(=O)[C@H](C)N)[C@@H](C)O)C(N)=O) [D-EKC/D (2)]
number of scratching events induced by substance P, relative to control group (saline+SP = 100%) [1]: about 20%
number of scratching events induced by substance P, relative to control group [1, 4]: slight tendency of restoration
number of scratching events induced by substance P, relative to control group ([1]; 10^-3M peptide intrathecal, administration interval of 45 minutes): almost the same effects were exhibited
effect on latency period following administration of SP [2, 5]: significantly attenuated
effect on latency period following administration of SP ([2]; 10^-6M SP 8 hours later): significant attenuation

Leu-Glu-His-Thr-Phe-Gln-DTrp-Leu-Leu-NH2 (LEHTFQXLL; HELM PEPTIDE1{L.E.H.T.F.Q.[dW].L.L.[am]}$$$$V2.0; N-terminus assumed; SMILES CC(C)C[C@H](NC(=O)[C@H](CC(C)C)NC(=O)[C@@H](Cc1c[nH]c2ccccc12)NC(=O)[C@H](CCC(N)=O)NC(=O)[C@H](Cc1ccccc1)NC(=O)[C@@H](NC(=O)[C@H](Cc1c[nH]cn1)NC(=O)[C@H](CCC(=O)O)NC(=O)[C@@H](N)CC(C)C)[C@@H](C)O)C(N)=O) [D-EKC/D (4)]
scratching behavior induced by substance P [1]: never induced
suppressive effects on scratching as administration interval is prolonged [1]: gradually attenuated
suppressive effects compared with [D-Trp^10]-EKC/D consisting of 12 amino acids ([1]; Example 2 discussion): suppressive effects almost similar to those of [D-Trp^10]-EKC/D
scratching behavior induced by substance P / suppressive effects [1]: attenuated

Ala-Tyr-Gln-Leu-Glu-His-Thr-DTrp-Gln-DTrp-Leu-Leu-NH2 (AYQLEHTXQXLL; HELM PEPTIDE1{A.Y.Q.L.E.H.T.[dW].Q.[dW].L.L.[am]}$$$$V2.0; N-terminus assumed; SMILES CC(C)C[C@H](NC(=O)[C@H](CC(C)C)NC(=O)[C@@H](Cc1c[nH]c2ccccc12)NC(=O)[C@H](CCC(N)=O)NC(=O)[C@@H](Cc1c[nH]c2ccccc12)NC(=O)[C@@H](NC(=O)[C@H](Cc1c[nH]cn1)NC(=O)[C@H](CCC(=O)O)NC(=O)[C@H](CC(C)C)NC(=O)[C@H](CCC(N)=O)NC(=O)[C@H](Cc1ccc(O)cc1)NC(=O)[C@H](C)N)[C@@H](C)O)C(N)=O) [D-EKC/D (1)]
number of scratching events induced by substance P, relative to control group (saline+SP = 100%) [1]: about 40%
duration of suppressive effects on substance P-induced scratching behavior ([1]; 10^-3M peptide intrathecal, 10^-3M SP): almost the same as that of the EKC/D consisting only of L-type amino acids
number of scratching events induced by substance P, relative to control group [1, 4]: disappeared
effect on latency period following administration of SP [2, 5]: significantly attenuated
effect on latency period following administration of SP ([2]; 10^-6M SP 8 hours later): differs from D-EKC/D (2) and (3) in duration of effectiveness

Thr-Phe-Gln-DTrp-Leu-Leu-NH2 (TFQXLL; HELM PEPTIDE1{T.F.Q.[dW].L.L.[am]}$$$$V2.0; N-terminus assumed; SMILES CC(C)C[C@H](NC(=O)[C@H](CC(C)C)NC(=O)[C@@H](Cc1c[nH]c2ccccc12)NC(=O)[C@H](CCC(N)=O)NC(=O)[C@H](Cc1ccccc1)NC(=O)[C@@H](N)[C@@H](C)O)C(N)=O) [D-EKC/D (7)]
scratching behavior induced by substance P / suppressive effects [1]: attenuated; also recorded: minimum suppressive effects
